Source: patent US11639373B2, “Therapeutic and diagnostic agents for cancer” (TECHNISCHE UNIVERSITÄT MÜNCHEN, priority 2018, dated 2023)
Read-outs that look alike come from different tables or passages of the source. Non-standard residues stand in square brackets, D forms with d. Residues, ends and D or L forms follow the SMILES beside them. Groups on a side chain read outwards from the residue. ξ: configuration not given here. *: point of attachment. X3 = C[N+](C)(Cc1cn([C@@H](CCCNC(=N)N)C(=O)*)nn1)C[B-](F)(F)F; X2 = C[N+](C)(Cc1cn([C@@H](CCCCN)C(=O)*)nn1)C[B-](F)(F)F; DOTA = O=C(O)CN1CCN(CC(=O)O)CCN(CC(=O)*)CCN(CC(=O)O)CC1; X5 = CC(C)[C@H](C(=O)*)n1cc(C[N+](C)(C)C[B-](F)(F)F)nn1; X4 = C[N+](C)(Cc1cn(-c2ccc(C(=O)*)cc2)nn1)C[B-](F)(F)F; dTyr(3-I) = N[C@H](Cc1ccc(O)c(I)c1)C(=O)O; 2Nal = N[C@@H](Cc1ccc2ccccc2c1)C(=O)O; X1 = OCC1O[C@H](*)C(O)C(O)[C@H]1O; pS = N[C@@H](COP(=O)(O)O)C(=O)O; dNMeOrn = CN[C@H](CCCN)C(=O)O; 4Amb = NCc1ccc(C(=O)O)cc1; Mercaptoacetyl = O=C(CS)*; ξNMeOrn = CNC(CCCN)C(=O)O; 4Abz = Nc1ccc(C(=O)O)cc1; X6 = CC(=O)c1ccc(N*)cc1; Dap = NC[C@H](N)C(=O)O

What was measured:
human CXCR4 = molecular target: T1, human CXCR4 (Homo sapiens, UniProt P61073); assay: Competitive binding assay to human CXCR4, Jurkat cells, [125I]FC131 radioligand
T1 construct: using CXCR4 positive Jurkat human T-cell leukemia cells; endogenous in cells; host or cells: Jurkat human T-cell leukemia cells
T1 sequence (P61073 whole entry): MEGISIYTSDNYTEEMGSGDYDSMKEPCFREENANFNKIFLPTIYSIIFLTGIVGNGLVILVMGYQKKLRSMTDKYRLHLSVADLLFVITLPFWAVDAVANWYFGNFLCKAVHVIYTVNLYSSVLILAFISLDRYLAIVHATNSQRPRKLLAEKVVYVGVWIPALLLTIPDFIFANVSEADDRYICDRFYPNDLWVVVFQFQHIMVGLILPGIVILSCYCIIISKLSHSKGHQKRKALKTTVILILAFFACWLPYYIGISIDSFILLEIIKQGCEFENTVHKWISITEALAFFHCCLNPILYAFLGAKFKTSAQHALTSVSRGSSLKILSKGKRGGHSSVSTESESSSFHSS

[1] = Lipophilicity, shake flask n-octanol/PBS; assay type: physicochemical; details: Table 1d
Experimental: To a solution of app. 0.5 MBq of radiolabeled peptide in 500 μL of PBS (pH 7.4), 500 μL of octanol were added (n=6). Vials were vortexed vigorously for 3 min. To achieve quantitative phase separation, the vials were centrifuged at 14,600×g for 6 min in a Biofuge 15 (Heraeus Sepatech, Osterode, Germany). The activity concentrations in 100 μL-samples of both the aqueous and the organic phase were measured in a γ-counter. Both the partition coefficient Pow, which is defined as the molar concentration ratio of a single species A between octanol and an aqueous phase at equilibrium, and log Pow, which is an important parameter used to characterize lipophilicity of a compound, were calculated.
Internalization and cell efflux studies of the respective ligands were performed using a previously published protocol (Poschenrieder et al., First 18F-Labeled Pentixafor-Based Imaging Agent for PET Imaging of CXCR4 Expression In Vivo. 2016). The distribution coefficients of the respective ^68Ga- and […] peptides in octanol and PBS buffer were determined applying the shake flask method as described previously (Weineisen et al., Synthesis and preclinical evaluation of DOTAGA-conjugated PSMA ligands for functional imaging and endoradiotherapy of prostate cancer. EJNMMI Research. 2014; 1:1-15).
Lipophilicity was measured using the shake flask method. The logarithm of the partition coefficient P, where P is the ratio of activity distribution of the respective ^68Ga/^177Lu-labeled peptide in n-octanol and PBS are listed in Table 2.

murine CXCR4 = molecular target: T2, murine CXCR4 (Mus musculus, UniProt P70658); assay: Competitive binding assay to murine CXCR4, Eμ-Myc1080 cells, [125I]CPCR4.3 radioligand
T2 construct: The murine CXCR4 expressing cell line Ep-Myc1080; endogenous in cells; host or cells: Eμ-Myc1080 mouse B-cell lymphoma cells
T2 sequence (P70658 whole entry): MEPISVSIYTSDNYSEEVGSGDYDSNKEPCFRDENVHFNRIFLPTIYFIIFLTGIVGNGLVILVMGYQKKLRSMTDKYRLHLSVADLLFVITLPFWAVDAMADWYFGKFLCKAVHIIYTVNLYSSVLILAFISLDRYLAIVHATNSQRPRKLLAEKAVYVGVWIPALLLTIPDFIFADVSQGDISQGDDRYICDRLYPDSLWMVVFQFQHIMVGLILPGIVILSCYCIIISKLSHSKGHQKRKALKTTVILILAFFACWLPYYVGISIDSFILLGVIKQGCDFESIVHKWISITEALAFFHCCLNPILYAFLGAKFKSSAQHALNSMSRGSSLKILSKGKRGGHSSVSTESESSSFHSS
Experimental: Competition studies addressing the human CXCR4 were performed using CXCR4 positive Jurkat human T-cell leukemia cells and ^125I-FC131 (^125I-2), addressing the murine CXCR4, Ep-Myc1080 mouse B-cell lymphoma cells and ^125I-CPCR4.3 (Demmer et al. A Conformationally Frozen Peptoid Boosts CXCR4 Affinity and Anti-HIV Activity. Angewandte Chemie International Edition. 2012; 51:8110-8113) as the radioligand were utilized as described previously (Poschenrieder et al., The influence of different metal-chelate conjugates of pentixafor on the CXCR4 affinity. EJNMMI research. 2016; 6:1-8).

[2] = Table 1b, 18F-labeling precursors, Jurkat cells, [^125I]FC-131, read-out: IC50 [nM] to hCXCR4
[3] = Table 1d, orn side chain modifications, read-out: IC50 [nM] to hCXCR4
[4] = Table 1b, ^natLu metal complexes, Jurkat cells, [^125I]FC-131, read-out: IC50 [nM] to hCXCR4 [^natLu]
[5] = ^natLu complexes, Jurkat cells, [^125I]FC131 0.1 nM, RT 2 h, mean ± SD (n = 3), read-out: IC50 [nM] for ^natLu-complexes and human CXCR4
[6] = Table 1b, ^natGa metal complexes, Jurkat cells, [^125I]FC-131, read-out: IC50 [nM] to hCXCR4 [^natGa]
[7] = Table 1b, ^natY metal complexes, Jurkat cells, [^125I]FC-131, read-out: IC50 [nM] to hCXCR4 [^natY]
[8] = ^natGa complexes, Jurkat cells, [^125I]FC131 0.1 nM, RT 2 h, mean ± SD (n = 3), read-out: IC50 [nM] for ^natGa-complexes and human CXCR4

CN1C(=O)[C@@H](Cc2ccc(O)c(I)c2)NC(=O)CNC(=O)[C@H](Cc2ccc3ccccc3c2)NC(=O)[C@H](CCCNC(=N)N)NC(=O)[C@H]1CCCNC(=O)c1ccc(-n2cc(C[N+](C)(C)C[B-](F)(F)F)nn2)cc1 [F1, cyclo[i-yorn′(AMBF3(methyl(1H-1,2,3-triazol-4-yl)4-amino)benzoyl-)RNaIG]] (cyclo([2Nal]G[dTyr(3-I)][dNMeOrn](X4)R))
IC50 (human CXCR4; [2]): 134 ± 47 nM

CC(C)[C@H](C(=O)NCC(=O)Nc1ccc(C(=O)NCCC[C@@H]2C(=O)N[C@@H](CCCNC(=N)N)C(=O)N[C@@H](Cc3ccc4ccccc4c3)C(=O)NCC(=O)N[C@H](Cc3ccc(O)c(I)c3)C(=O)N2C)cc1)n1cc(C[N+](C)(C)C[B-](F)(F)F)nn1 [F2, cyclo[i-yorn′(AMBF3(methyl(1H-1,2,3-triazol-4-yl)-vG-4-amino)benzoyl-)RNaIG]] (cyclo([2Nal]G[dTyr(3-I)][dNMeOrn]([4Abz-Gly-X5])R))
IC50 (human CXCR4; [2]): 65.2 ± 10 nM

CN1C(=O)[C@@H](Cc2ccc(O)cc2)NC(=O)CNC(=O)[C@H](Cc2ccc3ccccc3c2)NC(=O)[C@H](CCCNC(=N)N)NC(=O)[C@H]1CCCNC(=O)c1ccc(NC(=O)CNC(=O)[C@H](CCCNC(=N)N)n2cc(C[N+](C)(C)C[B-](F)(F)F)nn2)cc1 [F3b, cyclo[-yorn′(AMBF3(methyl(1H-1,2,3-triazol-4-yl)-rG-4-amino)benzoyl-)RNaIG]] (cyclo([2Nal]G[dY][dNMeOrn]([4Abz-Gly-X3])R))
IC50 (human CXCR4; [2]): 2.4 ± 0.8 nM

CN1C(=O)[C@@H](Cc2ccc(O)c(I)c2)NC(=O)CNC(=O)[C@H](Cc2ccc3ccccc3c2)NC(=O)[C@H](CCCNC(=N)N)NC(=O)[C@H]1CCCNC(=O)c1ccc(NC(=O)CNC(=O)[C@H](CCCCN)n2cc(C[N+](C)(C)C[B-](F)(F)F)nn2)cc1 [F4, cyclo[i-yorn′(AMBF3(methyl(1H-1,2,3-triazol-4-yl)-kG-4-amino)benzoyl-)RNaIG]] (cyclo([2Nal]G[dTyr(3-I)][dNMeOrn]([4Abz-Gly-X2])R))
IC50 (human CXCR4; [2]): 3.8 ± 0.9 nM

CC(=O)c1ccc(NC(=O)[C@@H](C)NC(=O)[C@@H](CCCNC(=N)N)NC(=O)[C@@H](CNC(=O)CO/N=C\c2ccc(F)cc2)NC(=O)CCS[C@H]2OC(CO)[C@@H](O[C@@H]3OC(CO)[C@@H](O)C(O)C3O)C(O)C2O)cc1 (some centres unmarked) [F5]
IC50 (human CXCR4; [3]): 4.6 ± 0.7 nM

CN1C(=O)[C@H](Cc2ccc(O)c(I)c2)NC(=O)CNC(=O)[C@@H](Cc2ccc3ccccc3c2)NC(=O)[C@@H](CCCNC(=N)N)NC(=O)[C@@H]1CCCNC(=O)c1ccc(NC(=O)[C@@H](CC(=O)O)NC(=O)CN2CCN(CC(=O)O)CCN(CC(=O)O)CCN(CC(=O)O)CC2)cc1 [P1]
IC50 (human CXCR4; [4]): 106 ± 10 nM
IC50 (human CXCR4; [5]): 106 ± 10 nM

CN1C(=O)[C@@H](Cc2ccc(O)c(I)c2)NC(=O)CNC(=O)[C@H](Cc2ccc3ccccc3c2)NC(=O)[C@H](CCCNC(=N)N)NC(=O)[C@H]1CCCNC(=O)c1ccc(NC(=O)CNC(=O)[C@H](CN)NC(=O)CN2CCN(CC(=O)O)CCN(CC(=O)O)CCN(CC(=O)O)CC2)cc1 [P2] (cyclo([2Nal]G[dTyr(3-I)][dNMeOrn]([4Abz-Gly-Dap-DOTA])R))
IC50 (human CXCR4; [6]): 3.6 ± 0.7 nM
IC50 (human CXCR4; [7]): 4.1 ± 1.3 nM
IC50 (human CXCR4; [8]): 3.6 ± 0.7 nM

CN1C(=O)[C@@H](Cc2ccc(O)c(I)c2)NC(=O)CNC(=O)[C@H](Cc2ccc3ccccc3c2)NC(=O)[C@H](CCCNC(=N)N)NC(=O)C1CCCNC(=O)c1ccc(NC(=O)CNC(=O)[C@H](CCCCN)NC(=O)CN2CCN(CC(=O)O)CCN(CC(=O)O)CCN(CC(=O)O)CC2)cc1 (stereo partly drawn) [P3] (cyclo([2Nal]G[dTyr(3-I)][ξNMeOrn]([4Abz-Gly-Lys-DOTA])R))
IC50 (human CXCR4; Table 1b, ^natBi metal complexes, Jurkat cells, [^125I]FC-131, read-out: IC50 [nM] to hCXCR4 [^natBi]): 38 ± 25 nM
IC50 (human CXCR4; [6]): 2.4 ± 0.1 nM
IC50 (human CXCR4; [4]): 3.6 ± 1.1 nM
IC50 (human CXCR4; [7]): 2.4 ± 0.2 nM
IC50 (human CXCR4; [8]): 2.4 ± 0.1 nM
IC50 (human CXCR4; [5]): 3.6 ± 1.1 nM

CN1C(=O)[C@@H](Cc2ccc(O)cc2)NC(=O)CNC(=O)[C@H](Cc2ccc3ccccc3c2)NC(=O)[C@H](CCCNC(=N)N)NC(=O)C1CCCNC(=O)c1ccc(NC(=O)CNC(=O)[C@H](CCCCN)NC(=O)CN2CCN(CC(=O)O)CCN(CC(=O)O)CCN(CC(=O)O)CC2)cc1 (stereo partly drawn) [P3b] (cyclo([2Nal]G[dY][ξNMeOrn]([4Abz-Gly-Lys-DOTA])R))
IC50 (human CXCR4; [6]): 8.9 ± 3.8 nM
IC50 (human CXCR4; [4]): 8 ± 3.1 nM
IC50 (human CXCR4; [7]): 6.3 ± 2.5 nM
IC50 (human CXCR4; [8]): 8.9 ± 3.8 nM
IC50 (human CXCR4; [5]): 8 ± 3.1 nM

CC(=O)c1ccc(NC(=O)[C@@H](C)NC(=O)[C@@H](CCCNC(=N)N)NC(=O)[C@@H](CO)NC(=O)[C@@H](CO)NC(=O)[C@@H](CO)NC(=O)CS)cc1 [T1] (Mercaptoacetyl-[dS][dS][dS][dR][dA]-X6)
IC50 (human CXCR4; [3]): 22.9 ± 3.9 nM

C[C@@H](NC(=O)[C@@H](CCCNC(=N)N)NC(=O)[C@H](CC(=O)O)NC(=O)[C@H](CC(=O)O)NC(=O)[C@H](CC(=O)O)NC(=O)CS)C(=O)Nc1ccc(C(=O)O)cc1 [T2] (Mercaptoacetyl-DDD[dR][dA][4Abz]-OH)
IC50 (human CXCR4; [3]): 85.7 ± 5.1 nM
logP [1]: −2.2

C[C@@H](NC(=O)[C@@H](CCCNC(=N)N)NC(=O)[C@H](CN)NC(=O)[C@H](CN)NC(=O)[C@H](CN)NC(=O)CS)C(=O)Nc1ccc(C(=O)O)cc1 [T3] (Mercaptoacetyl-[Dap][Dap][Dap][dR][dA][4Abz]-OH)
IC50 (human CXCR4; [3]): 18.8 ± 8.5 nM
logP [1]: −1.5

C[C@@H](NC(=O)[C@@H](CCCNC(=N)N)NC(=O)[C@H](CO)NC(=O)[C@H](COP(=O)(O)O)NC(=O)[C@H](CO[C@H]1OC(CO)[C@H](O)C(O)C1O)NC(=O)CS)C(=O)Nc1ccc(C(=O)O)cc1 (some centres unmarked) [T4] (Mercaptoacetyl-S(X1)[pS]S[dR][dA][4Abz]-OH)
IC50 (human CXCR4; [3]): 213 ± 22 nM
logP [1]: −2.2

CN1C(=O)[C@@H](Cc2ccc(O)cc2)NC(=O)CNC(=O)[C@H](Cc2ccc3ccccc3c2)NC(=O)[C@H](CCCNC(=N)N)NC(=O)[C@H]1CCCNC(=O)c1ccc(CNC(=O)CN2CCN(CC(=O)O)CCN(CC(=O)O)CCN(CC(=O)O)CC2)cc1 [compound 3, cyclo(D-Tyr^1-D-[NMe]Orn^2(AMBS-DOTA)-Arg^3-Nal^4-Gly^5), reference compound] (cyclo([dY][dNMeOrn]([4Amb-DOTA])R[2Nal]G))
IC50 (murine CXCR4): > 1000 nM

cyclo[i-yorn′(DOTA-ra-(4-amino)benzoyl-)RNaIG [P5]
increase in affinity compared to P2 (human CXCR4; hCXCR4): almost two-fold

cyclo[i-yorn′([^natLu]DOTA-dapG-(4-amino)benzoyl-)RNaIG [^natLu-P2]
improvement of binding affinity by insertion of cationic amino acids in the linker (human CXCR4; hCXCR4, versus ligand with glycine linker only): almost two-fold

cyclo[i-yorn′([^natLu]DOTA-rG-(4-amino)benzoyl-)RNaIG [^natLu-P4]
mIC50[nM] ^natLu complexes and murine CXCR4 (murine CXCR4; ^natLu complexes, Eμ-Myc1080 mouse B-cell lymphoma cells, [^125I]CPCR4.3, mean ± SD (n = 3)): 37.1 ± 2.9 nM
